This note sets out measurements from a melting point compilation (Tetko et al.; mined from patent text by program, amines drawn as free bases though some values may be those of a salt).

What is called melting point is the temperature of the solid-liquid transition.

Structures are written as SMILES.

Compound `CCOC(=O)C1CCC(=O)NC1=O` (centres undefined) yielded a melting point of 69 to 74 °C.

Compound `CC(C)(C)OC(=O)NCc1cccc(Nc2ncnc3[nH]cc(C(=O)c4ccccc4)c23)c1` came in with a melting point of 210 to 212 °C.

Take `CCOC(=O)NNC(=O)CC(F)=C(F)F`: the melting point is 110 °C.

Take `COc1ccc(Oc2c(Br)cc(C=O)cc2[N+](=O)[O-])cc1Cc1ccc(=O)[nH]n1`: the melting point lay in the range of 188 to 190 °C.

Take `Nc1cccc(-c2ccc(CCN3CCc4ccccc4C3)cc2)n1`: the melting point is 130 to 132 °C.

In the case of `CCC1C(C)=NN=C(c2ccc(O)c(O)c2)c2cc(O)c(O)cc21` (centres undefined), the melting point lay within 250 to 251 °C.

In the case of `CC1=C2CCC(=O)C23CCC(C3)C1(C)C` (centres undefined), the melting point fell in the range of 35 to 36 °C.

In the case of `Cn1c(=O)[nH]c(=O)c2c1ncn2CC(C)(C)O`, the melting point was 268 to 269 °C.

For `Cc1c(C)c(N2Cc3cc4c(cc3C2)OCO4)c(C)c2c1OC(C)(C)C2c1ccc(C(C)C)cc1` (centres undefined), the melting point lay in the range of 175 to 177 °C.

In turn, `CCCCCCCCCCCCCCCCCCSCCCCCC(N)=O` displayed a melting point of 105 °C.

Regarding `CCOC(=O)c1ccc(NCCCCCCc2ccccc2)cc1`, the melting point is 69.5 to 72.5 °C.

Compound `COc1ccnc(CSc2nc3cc(OC(F)(F)C(F)Cl)ccc3[nH]2)c1` (centres undefined) displayed a melting point of 120 °C.

`CC(=O)Nc1c([N+](=O)[O-])cc(Br)c2c1CCN(C(C)=O)C2` displayed a melting point of 171 °C.

Consider `CCN(CC)CCn1sc2nc(-c3ccccc3)ncc2c1=O`, for which the melting point was in the range of 106 to 107 °C.

For `COc1cc2c(cc1Br)CC(=O)NN=C2c1ccc([N+](=O)[O-])cc1`, the melting point lay in the range of 245 to 256 °C.

Turning to `O=C(O)C=Cc1ccc(-c2cnc(CSCCOc3ccccc3)o2)cc1`, the melting point was in the range of 150 to 153 °C.

Compound `COc1cccc2c1C(=O)c1c(OC)cc(-c3nc4ccccc4n3C)cc1C2=O` returned a melting point of 283 to 284 °C.

Consider `O=C(Nc1cc(Cl)ccc1Oc1ccc(Cl)cc1)c1ccncc1`, for which the melting point was in the range of 214 to 215 °C.

`COC(=O)CC(C(=O)OC)c1ccccc1` (centres undefined) gave a melting point of 54 to 56 °C.

`O=C(Nc1ccc(Cl)c(C(F)(F)F)c1)N1COc2cc(Oc3ccnc(Cl)n3)ccc21`: the melting point lay in the range of 140 to 142 °C.

The compound `CC(C)COc1ccc(NC(=O)c2cnn(-c3ccc(F)cc3)c2O)cc1C#N` came in with a melting point of 207 to 208 °C.

With `OC(c1cccc(Br)n1)(C(F)(F)F)C(F)(F)F`, the melting point fell in the range of 67 to 69 °C.

The compound `CC(=O)N[C@@H](Cc1cscn1)C(=O)O` showed a melting point of 186 °C.

As for `COC(=O)c1cc(C(=O)c2ncc3ccc(NC(=O)OC(C)(C)C)cn23)ccc1[N+](=O)[O-]`, the melting point is 182 °C.

On to `COc1ccc(C(=O)c2c(N)sc3c2CCSC3)cc1`, for which the melting point lay within 178 to 179 °C.

Turning to `COc1cc(Cl)cc(Cl)c1C=O`, the melting point lay in the range of 110 to 111 °C.

On to `NCc1ccc(N2CCN(c3ccc(OCC(=O)O)cc3)C2=O)cc1`, for which the melting point is greater than 250 °C.

As for `COc1cc(NC(=O)CCCCCN2CCN(CCO)CC2)c2nccc(C)c2c1`, the melting point fell in the range of 88 to 90 °C.

In turn, `CCOC(=O)C1=C(C)N=C(SCc2ccccc2)N(C(=O)OCC)C1c1ccccc1C(F)(F)F` (centres undefined) displayed a melting point of 85.5 to 87.5 °C.

`O=C(O)c1ccc(Cl)cc1OCCN1CCC(c2cn(Cc3ccoc3)c3ncccc23)CC1` registered a melting point of 81.6 to 83.3 °C.

As to `Nc1ncnc2c1c(-c1ccc(Oc3ccc(F)cc3)cc1)cn2C1CCOC1` (centres undefined), the melting point is 198 to 199 °C.

In turn, `CNC(=O)c1ccc(-c2cnc3oc(=O)n(Cc4cccc(OC)c4)c3n2)cc1` returned a melting point of 168 to 169 °C.

Take `Cc1ccc(CCOc2ccc(NC(=O)N(C)C)cc2)nc1`: the melting point fell in the range of 148 to 150 °C.

`CN1CCN(c2cccc3c2C[C@H](NC(=O)c2ccc(N4CCCCC4)cc2)CC3)CC1`: the melting point lay in the range of 196 to 198 °C.

For the compound `O=C1c2ccccc2C(O)(c2ccc(Cl)cc2)N1CCc1ccc([N+](=O)[O-])cc1` (centres undefined), the melting point is 206 to 208 °C.

Consider `Cc1sc(N)nc1-c1ccc(CCN2CCN(c3cccc4ccccc34)CC2)cc1`, for which the melting point is 160 to 165 °C.

With `O=[N+]([O-])C1COc2cc3c(cc2C1c1ccccc1C1OCCCO1)OCO3` (centres undefined), the melting point was 207 °C.

The compound `OCc1nccn1C(c1ccccc1)(c1ccccc1)c1ccccc1` came in with a melting point of 243 to 244 °C.

As to `CC(=O)N(C)c1cccc(S(=O)(=O)c2ccc([N+](=O)[O-])cc2)c1`, the melting point lay within 194 to 195 °C.

Turning to `CC1(C)CCOC1(O)Cn1cncn1` (centres undefined), the melting point fell in the range of 93 to 95 °C.

`CN1CC(O)=C(C(=O)Nc2ccccn2)N(C)S1(=O)=O`: the melting point amounted to 185 °C.

`N#CC(Cl)Cc1ccc(C(=O)O)cc1` (centres undefined) showed a melting point of 157 °C.

The compound `COCC(c1ccccc1)N(C)Cc1c(-c2ccc(NC(=O)NOC)cc2)sc2c1c(=O)n(-c1ccccc1)c(=O)n2Cc1c(F)cccc1F` (centres undefined) came in with a melting point of 169 to 172 °C.

Compound `COc1ccc([C@H]2c3[nH]c4ccccc4c3C[C@H]3C(=O)N(CCc4ccccn4)C(=O)N23)cc1` (relative stereo) showed a melting point of 140 to 143 °C.

With `C[C@]1(CN2CCN(C(=O)OCC=Cc3ccc(C(F)(F)F)cc3)CC2)Cn2cc([N+](=O)[O-])nc2O1`, the melting point was in the range of 132 to 133 °C.

As to `Cc1ccc(Cl)cc1NC(=S)Nc1nccs1`, the melting point fell in the range of 197 to 198 °C.

The compound `CSCCC(NC(=O)OCc1ccccc1)C(=O)Nc1nncs1` (racemic) returned a melting point of 155 to 159 °C.

On to `CCOc1ccc(-c2nc(-c3cccc(C(C#N)C(=O)OC)n3)cs2)cc1OCC` (centres undefined), for which the melting point lay in the range of 240 to 242 °C.

The compound `CNC(=C[N+](=O)[O-])NCCCCOc1cccc(CCCN(C)C)c1` came in with a melting point of 79 to 80.5 °C.

Turning to `O=[N+]([O-])c1ccccc1Sc1ccncc1`, the melting point fell in the range of 119 to 122 °C.

In turn, `O=C(Oc1nc(Cl)c(Cl)cc1Cl)C(Cl)(Cl)Cl` gave a melting point of 58 to 60 °C.

For the compound `CCOC(=O)C(=CN(C)C1(CO)CC1)C(=O)c1c(F)c(F)c(F)c(F)c1F`, the melting point was 74.5 to 76 °C.

Compound `CC(C)C(NS(=O)(=O)c1ccc(-c2cccc(CNC(=O)c3nc4ccccc4c(=O)[nH]3)c2)cc1)C(=O)NO` (centres undefined) showed a melting point of 153 to 155 °C.

Consider `CCN(C)c1nc2sc3c(NCc4ccco4)ncnc3c2c2c1CCC(C)(C)C2`, for which the melting point lay in the range of 116 to 118 °C.

`CC(=O)Nc1ccccc1N1CCc2cc(Cl)ccc21` had a melting point of 136 to 138 °C.

On to `Cc1c(C(=O)c2ccccc2)ccc(O)c1CC(=O)O`, for which the melting point came out at 212 °C.

Consider `Cc1ncc2n1-c1ccc(Cl)cc1N(c1ccccc1)C(=O)C2`, for which the melting point fell in the range of 276 to 278 °C.

With `COC(=O)c1ccc(OC)c(C=C2COc3ccc(OCc4ccccc4)cc3C2=O)c1`, the melting point lay within 167 to 169 °C.

On to `Cc1ccc2c(c1)c(O)c(C(=O)NC1CCCCC1)c(=O)n2C`, for which the melting point turned out to be 218 °C.

`CCN(c1cc2c3c(c1)CCCC3CCC2)c1ncc(C(=O)O)cn1` came in with a melting point of 252 to 253 °C.

For the compound `O=c1c(NCCCO)c(Cl)cnn1COCc1ccccc1`, the melting point fell in the range of 54 to 56 °C.

Turning to `CN(CC(=O)[C@@H](N)Cc1ccccc1)C(=O)N1CCC[C@H]1C(=O)O`, the melting point was 174 to 175 °C.

The compound `O=C(O)CCC1CCC(=O)N1` (centres undefined) came in with a melting point of 125 to 127 °C.

Compound `COc1ccc(S(=O)(=O)c2c(-c3ccccc3)oc3ccccc23)cc1` came in with a melting point of 146 to 148 °C.

The compound `CC(C)(C)OC(=O)Nc1ccnc(NC(=O)NCc2ccccn2)c1` registered a melting point of 192 to 193 °C.

As for `CC(C)Nc1nc(Cl)nc(Cl)n1`, the melting point lay within 46 to 47 °C.

Compound `CCOC(=O)c1cc(C(=O)C=CN(C)C)c(=O)[nH]c1C(=O)OCC` returned a melting point of 71 °C.

Turning to `COC(CC#N)=NC#N`, the melting point was 45.5 °C.

The compound `CCCCNS(=O)(=O)c1cc(C(=O)Cl)ccc1Cl` yielded a melting point of 110 °C.

On to `Cc1nc2ccc(N(C)C)nn2c1S(N)(=O)=O`, for which the melting point came to 227 °C.

With `CCOCCNc1nc(S)nc(N[C@@H](C)c2ccccc2)n1`, the melting point came to 53 °C.

Compound `CCOC(=O)CNC(=O)NCCCSc1nccc(NC(N)=NCC(F)(F)F)n1` showed a melting point of 165 to 166 °C.

Consider `C=CCc1ccc(C=CC(=O)c2ccc(OCC=C(C)C)cc2OCC(=O)O)cc1`, for which the melting point was in the range of 125 to 126 °C.

`Cc1cc(C=NNC(N)=S)ncc1NO` returned a melting point of 197 to 198 °C.

In turn, `C=CCOc1ccccc1NS(C)(=O)=O` displayed a melting point of 90 °C.

`ON=Cc1ccc(-c2ccc(Cl)cc2)o1`: the melting point was 139 to 141 °C.

In the case of `COC(=O)c1cc2cc(-c3ccc(C)cc3)ccc2nc1C`, the melting point lay within 84 to 87 °C.

`COC(=O)c1ccc(CC(C)N(CC(=O)c2ccc(OCc3ccccc3)c(NC(N)=O)c2)Cc2ccccc2)cc1` (centres undefined) yielded a melting point of 140 to 145 °C.

Compound `CN1CCC(C2c3cccc4c3N(CC4)c3ccccc3N2C(=O)OCC(Cl)(Cl)Cl)CC1` (centres undefined) yielded a melting point of 160 to 162 °C.

`Cc1cc(-c2ccccc2)nc(-c2cccc([N+](=O)[O-])c2)c1C(=O)O` yielded a melting point of 191 to 192 °C.

With `CCc1nn(C2CCCC2)c2cc(C3=NOC(C)(c4noc(-c5cc(OC)cc(OC)c5)n4)C3)ccc12` (centres undefined), the melting point is 154 to 155 °C.

`Cc1cnc(C2(CCCCN3CCC(N4Cc5ccccc5C4=O)CC3)c3ccccc3-c3ccccc32)s1` showed a melting point of 146 to 148 °C.

`FC(F)(F)c1n[nH]c2c1nc(-c1ccccc1)c1ccccc12` registered a melting point of 264 to 265 °C.

`COc1cc(Nc2nccc(-c3ccc(NC4CCCCC4O)nc3)n2)cc(OC)c1OC` (centres undefined) registered a melting point of 147 to 148 °C.

In the case of `N#Cc1cccc(CN2CCc3ccccc32)c1`, the melting point lay within 54.5 to 56 °C.

In turn, `O=C(Nc1cccc([N+](=O)[O-])c1)NC1CC(C(=O)O)Nc2cc(Cl)cc(Cl)c21` (centres undefined) came in with a melting point of 209 to 210 °C.

In turn, `Nc1ccc2c(c1)C(=O)N(C1CCN(Cc3ccccc3)CC1)C2=O` registered a melting point of 216 to 218 °C.

With `COc1cc(Nc2nccc(S(=O)(=O)c3ccccc3)n2)cc(OC)c1OC`, the melting point stood at 110 °C.

Turning to `CC1(C)CC(S(=O)(=O)Cc2c(Cl)nn(C(F)F)c2C(F)(F)F)=NO1`, the melting point lay within 136 to 137 °C.
